# PubChem BioAssay (NCI)
#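 Briefly, cells in 96-well plates were exposed to five compound concentrations for 48 h, and endpoints were estimated by linear interpolation. At the TGI there is no net growth.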
# Tested on: SK-MEL-28 melanoma
# Assay: NCI tumour cell line growth inhibition, 48 h
row,Compound,TGI [µM]
1,CCOC(=O)CNC(=O)N(CC)C12CC3CC(CC(C3)C1)C2,560
2,CCOC(=O)CCC(=O)C1c2cccc(O)c2C(=O)c2c(O)cc(C)cc21 (configuration not stated),2.92
3,CC(=O)Nc1ccc(/C=C/c2ccc(NC(=O)Nc3ccc(/C=C/c4ccc(NC(C)=O)cc4S(=O)(=O)O)c(S(=O)(=O)O)c3)cc2S(=O)(=O)O)c(S(=O)(=O)O)c1,> 100
4,O=C(c1cccc2ccccc12)N1CCC(C2CCN(C(=O)c3cccc4ccccc34)CC2)CC1,> 100

# Tested on: SK-MEL-5 melanoma
# Assay: NCI tumour cell line growth inhibition, 48 h
row,Compound,TGI [µM]
1,CCOC(=O)CNC(=O)N(CC)C12CC3CC(CC(C3)C1)C2,195
2,CCOC(=O)CCC(=O)C1c2cccc(O)c2C(=O)c2c(O)cc(C)cc21 (configuration not stated),1.83
3,CC(=O)Nc1ccc(/C=C/c2ccc(NC(=O)Nc3ccc(/C=C/c4ccc(NC(C)=O)cc4S(=O)(=O)O)c(S(=O)(=O)O)c3)cc2S(=O)(=O)O)c(S(=O)(=O)O)c1,> 100
4,O=C(c1cccc2ccccc12)N1CCC(C2CCN(C(=O)c3cccc4ccccc34)CC2)CC1,> 100

# Tested on: SK-OV-3 ovarian
# Assay: NCI tumour cell line growth inhibition, 48 h
row,Compound,TGI [µM]
1,CCOC(=O)CNC(=O)N(CC)C12CC3CC(CC(C3)C1)C2,216
2,CCOC(=O)CCC(=O)C1c2cccc(O)c2C(=O)c2c(O)cc(C)cc21 (configuration not stated),2.01
3,CC(=O)Nc1ccc(/C=C/c2ccc(NC(=O)Nc3ccc(/C=C/c4ccc(NC(C)=O)cc4S(=O)(=O)O)c(S(=O)(=O)O)c3)cc2S(=O)(=O)O)c(S(=O)(=O)O)c1,> 100
4,O=C(c1cccc2ccccc12)N1CCC(C2CCN(C(=O)c3cccc4ccccc34)CC2)CC1,> 100

# Tested on: SN12C renal
# Assay: NCI tumour cell line growth inhibition, 48 h
row,Compound,TGI [µM]
1,CCOC(=O)CNC(=O)N(CC)C12CC3CC(CC(C3)C1)C2,414
2,CCOC(=O)CCC(=O)C1c2cccc(O)c2C(=O)c2c(O)cc(C)cc21 (configuration not stated),3.75
3,CC(=O)Nc1ccc(/C=C/c2ccc(NC(=O)Nc3ccc(/C=C/c4ccc(NC(C)=O)cc4S(=O)(=O)O)c(S(=O)(=O)O)c3)cc2S(=O)(=O)O)c(S(=O)(=O)O)c1,> 100
4,O=C(c1cccc2ccccc12)N1CCC(C2CCN(C(=O)c3cccc4ccccc34)CC2)CC1,> 100

# Tested on: SN12K1 renal
# Assay: NCI tumour cell line growth inhibition, 48 h
row,Compound,TGI [µM]
1,CCOC(=O)CNC(=O)N(CC)C12CC3CC(CC(C3)C1)C2,181
2,CC(=O)Nc1ccc(/C=C/c2ccc(NC(=O)Nc3ccc(/C=C/c4ccc(NC(C)=O)cc4S(=O)(=O)O)c(S(=O)(=O)O)c3)cc2S(=O)(=O)O)c(S(=O)(=O)O)c1,> 100

# Tested on: SNB-19 CNS
# Assay: NCI tumour cell line growth inhibition, 48 h
row,Compound,TGI [µM]
1,CCOC(=O)CNC(=O)N(CC)C12CC3CC(CC(C3)C1)C2,430
2,CCOC(=O)CCC(=O)C1c2cccc(O)c2C(=O)c2c(O)cc(C)cc21 (configuration not stated),3.74
3,CC(=O)Nc1ccc(/C=C/c2ccc(NC(=O)Nc3ccc(/C=C/c4ccc(NC(C)=O)cc4S(=O)(=O)O)c(S(=O)(=O)O)c3)cc2S(=O)(=O)O)c(S(=O)(=O)O)c1,> 100

# Tested on: SNB-75 CNS
# Assay: NCI tumour cell line growth inhibition, 48 h
row,Compound,TGI [µM]
1,CCOC(=O)CNC(=O)N(CC)C12CC3CC(CC(C3)C1)C2,361
2,CCOC(=O)CCC(=O)C1c2cccc(O)c2C(=O)c2c(O)cc(C)cc21 (configuration not stated),1.76
3,CC(=O)Nc1ccc(/C=C/c2ccc(NC(=O)Nc3ccc(/C=C/c4ccc(NC(C)=O)cc4S(=O)(=O)O)c(S(=O)(=O)O)c3)cc2S(=O)(=O)O)c(S(=O)(=O)O)c1,> 100
4,O=C(c1cccc2ccccc12)N1CCC(C2CCN(C(=O)c3cccc4ccccc34)CC2)CC1,65.7

# Tested on: SNB-78 CNS
# Assay: NCI tumour cell line growth inhibition, 48 h
row,Compound,TGI [µM]
1,CCOC(=O)CNC(=O)N(CC)C12CC3CC(CC(C3)C1)C2,474
2,CCOC(=O)CCC(=O)C1c2cccc(O)c2C(=O)c2c(O)cc(C)cc21 (configuration not stated),1.9
3,CC(=O)Nc1ccc(/C=C/c2ccc(NC(=O)Nc3ccc(/C=C/c4ccc(NC(C)=O)cc4S(=O)(=O)O)c(S(=O)(=O)O)c3)cc2S(=O)(=O)O)c(S(=O)(=O)O)c1,> 100
4,O=C(c1cccc2ccccc12)N1CCC(C2CCN(C(=O)c3cccc4ccccc34)CC2)CC1,> 100

# Tested on: SR leukemia
# Assay: NCI tumour cell line growth inhibition, 48 h
row,Compound,TGI [µM]
1,CCOC(=O)CCC(=O)C1c2cccc(O)c2C(=O)c2c(O)cc(C)cc21 (configuration not stated),4.25
2,O=C(c1cccc2ccccc12)N1CCC(C2CCN(C(=O)c3cccc4ccccc34)CC2)CC1,> 100

# Tested on: SW-620 colon
# Assay: NCI tumour cell line growth inhibition, 48 h
row,Compound,TGI [µM]
1,CCOC(=O)CNC(=O)N(CC)C12CC3CC(CC(C3)C1)C2,297
2,CCOC(=O)CCC(=O)C1c2cccc(O)c2C(=O)c2c(O)cc(C)cc21 (configuration not stated),2.9
3,CC(=O)Nc1ccc(/C=C/c2ccc(NC(=O)Nc3ccc(/C=C/c4ccc(NC(C)=O)cc4S(=O)(=O)O)c(S(=O)(=O)O)c3)cc2S(=O)(=O)O)c(S(=O)(=O)O)c1,> 100
4,O=C(c1cccc2ccccc12)N1CCC(C2CCN(C(=O)c3cccc4ccccc34)CC2)CC1,> 100

# Tested on: TK-10 renal
# Assay: NCI tumour cell line growth inhibition, 48 h
row,Compound,TGI [µM]
1,CCOC(=O)CCC(=O)C1c2cccc(O)c2C(=O)c2c(O)cc(C)cc21 (configuration not stated),3.39
2,O=C(c1cccc2ccccc12)N1CCC(C2CCN(C(=O)c3cccc4ccccc34)CC2)CC1,> 100

# Tested on: U251 CNS
# Assay: NCI tumour cell line growth inhibition, 48 h
row,Compound,TGI [µM]
1,CCOC(=O)CNC(=O)N(CC)C12CC3CC(CC(C3)C1)C2,239
2,CCOC(=O)CCC(=O)C1c2cccc(O)c2C(=O)c2c(O)cc(C)cc21 (configuration not stated),0.65
3,CC(=O)Nc1ccc(/C=C/c2ccc(NC(=O)Nc3ccc(/C=C/c4ccc(NC(C)=O)cc4S(=O)(=O)O)c(S(=O)(=O)O)c3)cc2S(=O)(=O)O)c(S(=O)(=O)O)c1,> 100
4,O=C(c1cccc2ccccc12)N1CCC(C2CCN(C(=O)c3cccc4ccccc34)CC2)CC1,> 100

# Tested on: UACC-257 melanoma
# Assay: NCI tumour cell line growth inhibition, 48 h
row,Compound,TGI [µM]
1,CCOC(=O)CNC(=O)N(CC)C12CC3CC(CC(C3)C1)C2,322
2,CCOC(=O)CCC(=O)C1c2cccc(O)c2C(=O)c2c(O)cc(C)cc21 (configuration not stated),2.8
3,CC(=O)Nc1ccc(/C=C/c2ccc(NC(=O)Nc3ccc(/C=C/c4ccc(NC(C)=O)cc4S(=O)(=O)O)c(S(=O)(=O)O)c3)cc2S(=O)(=O)O)c(S(=O)(=O)O)c1,> 100
4,O=C(c1cccc2ccccc12)N1CCC(C2CCN(C(=O)c3cccc4ccccc34)CC2)CC1,> 100

# Tested on: UACC-62 melanoma
# Assay: NCI tumour cell line growth inhibition, 48 h
row,Compound,TGI [µM]
1,CCOC(=O)CNC(=O)N(CC)C12CC3CC(CC(C3)C1)C2,218
2,CCOC(=O)CCC(=O)C1c2cccc(O)c2C(=O)c2c(O)cc(C)cc21 (configuration not stated),1.48
3,CC(=O)Nc1ccc(/C=C/c2ccc(NC(=O)Nc3ccc(/C=C/c4ccc(NC(C)=O)cc4S(=O)(=O)O)c(S(=O)(=O)O)c3)cc2S(=O)(=O)O)c(S(=O)(=O)O)c1,> 100
4,O=C(c1cccc2ccccc12)N1CCC(C2CCN(C(=O)c3cccc4ccccc34)CC2)CC1,> 100

# Tested on: UO-31 renal
# Assay: NCI tumour cell line growth inhibition, 48 h
row,Compound,TGI [µM]
1,CCOC(=O)CNC(=O)N(CC)C12CC3CC(CC(C3)C1)C2,358
2,CCOC(=O)CCC(=O)C1c2cccc(O)c2C(=O)c2c(O)cc(C)cc21 (configuration not stated),1.19
3,CC(=O)Nc1ccc(/C=C/c2ccc(NC(=O)Nc3ccc(/C=C/c4ccc(NC(C)=O)cc4S(=O)(=O)O)c(S(=O)(=O)O)c3)cc2S(=O)(=O)O)c(S(=O)(=O)O)c1,> 100
4,O=C(c1cccc2ccccc12)N1CCC(C2CCN(C(=O)c3cccc4ccccc34)CC2)CC1,> 100

# Tested on: XF 498 CNS
# Assay: NCI tumour cell line growth inhibition, 48 h
row,Compound,TGI [µM]
1,CCOC(=O)CNC(=O)N(CC)C12CC3CC(CC(C3)C1)C2,342
2,CCOC(=O)CCC(=O)C1c2cccc(O)c2C(=O)c2c(O)cc(C)cc21 (configuration not stated),0.52
3,CC(=O)Nc1ccc(/C=C/c2ccc(NC(=O)Nc3ccc(/C=C/c4ccc(NC(C)=O)cc4S(=O)(=O)O)c(S(=O)(=O)O)c3)cc2S(=O)(=O)O)c(S(=O)(=O)O)c1,> 100
4,O=C(c1cccc2ccccc12)N1CCC(C2CCN(C(=O)c3cccc4ccccc34)CC2)CC1,> 100
